Source: patent US11969402B2, “Compositions and methods for skin rejuvenation” (THE JOHNS HOPKINS UNIVERSITY, priority 2019, dated 2024)

Tests used:
[1] = test system: human scalp keratinocytes; assay: Retinoid levels (RA by LC-MS/MS, ROL and RE by HPLC-UV) in keratinocytes; type: cell-based; settings: human scalp keratinocytes, rhIL6 0, 10, 50, 100 ng per ml, 2 days
From the text: Small interference RNA (siRNA) transfection. Human ALDH1A2 (Santa Cruz Biotechnology, sc41443), ALDH1A3 (Santa Cruz Biotechnology, sc43611), TLR3 (Dharmacon, M-007745-00), TRIF (Santa Cruz Biotechnology, sc106845), IRF3 (Santa Cruz Biotechnology, sc35710), NF-κB (Santa Cruz Biotechnology, sc29410) and non-targeting control (scramble) siRNAs (Santa Cruz Biotechnology, sc37007 & Dharmacon, D-001210) were commercially provided. Human scalp keratinocytes (3×10^5 cells per well) in 12-well plates were transfected with 20 nM of siRNAs using Lipofectamine® RNAiMAX (Thermo Fisher Scientific, #13778150) following the manufacturer's directions. Poly (I:C) (0.1 μg per ml) was applied to transfected cells and incubated for 48 hrs. At the end of transfection period, cells were harvested to isolate protein to perform qRT-PCR, western blot, and RA mass spectrometry.
IL6 treatment. Recombinant human interleukin 6 (rhIL6) (R&D system; 206-IL-010) was treated into human scalp keratinocytes with dose-dependent manners (0, 10, 50, and 100 ng per ml) for 2 days. Cells were harvested and lysates were used for RA measurement.
Determination of Retinoid Levels. For in vitro samples, human scalp keratinocytes were incubated with 0.5 μg per ml of Poly (I:C) for 48 hrs or siRNAs-transfected cells were incubated with 0.1 μg per ml of Poly (I:C) for 48 hrs. For in vivo samples, skin was analyzed from wild-type and Tlr3^−/− unwounded and wounded skin where wound regions (center and edge area) were cut by scalpel. Human skin was analyzed for retinoids with and without CO2 laser treatment as described. All samples were frozen at collection and stored at −80° C. until extraction. For in vitro experiments, media and cell pellets were analyzed separately. For in vivo experiments, tissues were homogenized in saline. Extraction of retinoids was performed under yellow lights using a two-step liquid-liquid extraction that has been described in detail previously using 4,4-dimethyl-RA as an internal standard for RA and retinyl acetate as an internal standard for retinol and total retinyl ester^43-46. For the extraction of retinoids, 1 to 3 ml of 0.025 M KOH in ethanol was added to tissue homogenates (in vivo) or cell culture (in vitro) samples. Then 10 ml hexane (for in vivo tissue sample) or 5 ml hexane (for in vitro cell culture sample) was added to the aqueous ethanol phase. The samples were vortexed and centrifuged for 1 to 3 min at 1000 rpm in a Dynac centrifuge (Becton Dickinson) to facilitate phase separation and pellet precipitated protein. The hexane (top) phase containing nonpolar retinoids (ROL and RE) was removed. 4 M HCl (60-180 μl) was added to the remaining aqueous ethanol phase, samples were vortexed, and then polar retinoids (RA) were removed by extraction with a second 5-10 ml aliquot of hexane as described above. […]
Levels of RA were determined by liquid chromatography-multistage tandem mass spectrometry (LC-MRM^3) which is an LC-MS/MS method utilizing two distinct fragmentation events for enhanced selectivity^43. RA was measured using a Shimadzu Prominence UFLC XR liquid chromatography system (Shimadzu, Columbia, MD) coupled to an AB Sciex 5500 or 6500+ QTRAP hybrid triple quadrupole mass spectrometer (AB Sciex, Framingham, MA) using atmospheric pressure chemical ionization (APCI) operated in positive ion mode as previously described^43. […]

[2] = test system: human scalp keratinocytes; assay: Western blot / immunostaining of ALDH1A3, KRT15, KRT19 in human keratinocytes; type: cell-based; settings: human keratinocytes
Experimental: (§1) BMS493 treatment. BMS493 pan-RARs antagonist (1 μM) was pre-treated into keratinocytes for an hour and cells were incubated with RA (0.1 μM and 0.5 μM for human and mouse keratinocytes, respectively) or Poly (I:C) (0.1 μg per ml for both human and mouse keratinocytes) for 48 hrs. At the end of the experiment, cells were harvested for RNA and protein extraction to do further analysis including qRT-PCR and western blot.
Western blot analysis. Human and mouse keratinocytes were disrupted in M-PER lysis buffer (Thermo Fisher Scientific, #78501) containing protease inhibitors (Thermo Fisher Scientific, #87786) using ultrasonic homogenizer (20% power with 5 times every 2 seconds) to extract proteins. Then, protein concentrations were determined by BCA method (Thermo Fisher Scientific, #23225). Western blot procedures were followed by the protocol of NuPAGE system (Thermo Fisher Scientific). Briefly, 20 μg of protein samples were loaded for electrophoresis and transferred to polyvinylidene di-fluoride (PVDF) membrane (Bio-Rad, Hercules, CA). After blocking for at least an hour in 5% non-fat dry milk, the membrane was incubated with primary antibodies with appropriate dilutions (Table 2) at 4° C. overnight and followed by incubation with secondary antibodies for 1 hour at room temperature. Protein amounts were normalized to rabbit polyclonal anti-human β-actin antibody (1:1,000 dilution) (Cell Signaling Technology). Finally, proteins were visualized using SuperSignal West Pico PLUS chemiluminescent substrate kit (Thermo Fisher Scientific, #34577) and saved as image files using ChemiDoc XRS^+ (Bio-Rad). The signal intensity of protein was quantified using Image Lab software (Bio-Rad). Original images of representative blots were provided in the Source data file.
Immunofluorescence. For tissues, frozen-sections of mouse skin samples were stained with primary antibodies with appropriate dilution at 4° C. overnight, followed by incubation with goat anti-rabbit IgG labeled with Alexa Flour® 488 (Life Technologies) and 594 (Life Technologies) for 1 hour at room temperature. For cells, keratinocytes (3×10^5 cells) plated on cover-slip were fixed with 4% Paraformaldehyde (PFA) for 10 min, permeabilized in PBS including 0.5% Triton X-100 for 15 min at room temperature. After washing with PBS 3 times, cells were stained with primary antibodies overnight at 4° C., followed by incubation with goat anti-rabbit or mouse IgG labeled with Alexa Flour® 488 for 1 hour at room temperature. Cell nuclei were visualized by mounting medium including DAPI (Vector Laboratories, Burlingame, CA, H-1200). Fluorescence images were observed by fluorescence microscopy (Leica microsystems), taken pictures with ×100 (low magnification) and ×200 (high magnification), and saved as image files.

[3] = test system: keratinocytes of Tlr3−/− mice; assay: Western blot of stem cell markers in keratinocytes of Tlr3-/- mice; type: cell-based, mouse; settings: keratinocytes of Tlr3−/− mice, BMS493 1 μM pre-treated
Experimental: Adult keratinocytes isolation and cultures. For human keratinocytes, 3-mm skin biopsies were taken from areas of the occipital scalp through above IRB protocols using enzyme digestion method as described in the literature^30,31. For mouse keratinocytes, tails of adult mice were used and followed by the same protocol of human keratinocytes. Briefly, the skin fragments were incubated in 0.4% dispase II solution overnight at 4° C., allowing separation of epidermis from dermis. Then epidermis was incubated with 0.25% trypsin-EDTA (Lonza, Walkersville, MD) to isolate keratinocytes for 5 min at 37° C. Adult keratinocytes were maintained in KGM including defined growth factors (KGM-GOLD Bullet kit, #192060) (Lonza) and supplemented with 10 μM of ROCK inhibitor (Y-27632) (Cayman Chemical, #10005583) until use^32. For all in vitro experiments, primary keratinocytes were passaged at least once to eliminate contaminating other cells isolated from epidermis and used at passage 2-4 for human and passage 1-2 for mouse keratinocytes.
as §1
Western blot analysis. Human and mouse keratinocytes were disrupted in M-PER lysis buffer (Thermo Fisher Scientific, #78501) containing protease inhibitors (Thermo Fisher Scientific, #87786) using ultrasonic homogenizer (20% power with 5 times every 2 seconds) to extract proteins. Then, protein concentrations were determined by BCA method (Thermo Fisher Scientific, #23225). Western blot procedures were followed by the protocol of NuPAGE system (Thermo Fisher Scientific). […] The signal intensity of protein was quantified using Image Lab software (Bio-Rad). […]

[4] = test system: Wound Induced Hair Neogenesis (WIHN); assay: Wound Induced Hair Neogenesis (WIHN), regenerated hair follicles counted by CSLM; type: in vivo, mouse; settings: WT mice, topical 0.1 μg per mouse on WD1, with or without Poly (I:C)
Experimental: (§2) Wound Induced Hair Neogenesis (WIHN). All experiments were followed with the present inventors' WIHN protocol^1,9. Briefly, hair was shaved and a 1.2 cm^2 full-thickness skin on the backs of 21-day old (telogen) male and female mice was removed by sterile scissors. A single treatment of RA (30 μl) (0.1 μg per mouse) (Millipore Sigma, R2625) and BMS493 (30 μl) (0.1 μg per mouse) (Cayman Chemical, #17418) was applied topically onto open wound on WD1 of Tlr3^−/− and WT mice, respectively. Poly (I:C) (50 μl) (5 μg per mouse) (Invivogen, tlrl-pic) was injected under the healed scab on WD3 of WT mice as described before^9,34. On WD20-24, numbers of regenerated hair follicles were visualized and quantified in the re-epithelialized skin by non-invasive confocal scanning laser microscopy (CSLM) (Caliber I.D., VIVASCOPE 1500) as published^1,9. As a vehicle (Control), ethanol (EtOH), dimethylsulfoxide (DMSO), or PBS was treated for RA, BMS493, and Poly (I:C), respectively.

wound beds = assay: Immunostaining of healing wounds; type: in vivo, mouse; settings: WT mice
Experimental: as §2
Immunofluorescence. […] Fluorescence images were observed by fluorescence microscopy (Leica microsystems), taken pictures with ×100 (low magnification) and ×200 (high magnification), and saved as image files.

In the case of “IL-6: Recombinant human interleukin 6 (R&D system; 206-IL-010)”, the RA accumulation [1] is reported as “sufficient to substantially stimulate RA accumulation”.
For `CCN(CC)c1ccc(C=O)cc1` [DEAB, N,N-diethylaminobenzaldehyde], the “Poly (I:C) induction of ALDH1A3, KRT15 and KRT19 protein” value ([2]; broad ALDH chemical inhibition) was “disrupted”.
For `CC1(C)CC=C(C#Cc2ccccc2)c2cc(/C=C/c3ccc(C(=O)O)cc3)ccc21` [BMS493], the “RA-induced Krt15 and Krt19 expression” value [3] was “substantially inhibits expression”, the “RA-induced active β-catenin (ABC) expression” value [3] was “inhibits induction” and the WIHN [4] was “almost completely ablated”. For the same molecule, the “Wnt7b and Krt15 protein expression in wound beds prior to regeneration” value (wound beds) was “decreased” and the “RA and Poly (I:C)-induced KRT15 and KRT19 expression” value ([2]; BMS493 1 μM pre-treated) was “substantially inhibited”.
